The subject of one series is Baculovirus/HEK293. The following applies: for IC50: 24 h; for fold higher IC50 value compared to TAT-I24, baculovirus-transduced HEK293 cells: ratio to TAT-I24 IC50.
Series [1] deals with red blood cells (RBC). Briefly: RBC swelling (enlarged pellet after centrifugation). The following applies: peptides diluted in PBS (absence of serum), up to 20 µM, 1 h, pellet size after centrifugation.
The subject of a further series is plasmid-DNA (dsDNA). Nature of the series: Fluorescence-based dsDNA-binding assay (SYBR Gold, plasmid DNA). To be noted: TAT-I24 as reference, three independent experiments in duplicates.
Series [2] has as its system DiO-labelled MCMV in NIH/3T3 cells. The following applies: previous study; cited from earlier work. The text has this:
In contrast, the peptide TAT-M214, whi ...

The test system of series [3] is red blood cells (RBC). To be noted: RBC 1 h 37 °C; for haemolysis: OD 450 nm of supernatant. On the procedure: Figure 4 Effect of peptides on haemolysis and RBC swelling. (A,B) RBCs were isolated and treated in conical 96-well plates with peptides diluted in PBS or in 10% donor serum for one hour. OD [450 nm] was determined in the supernatants after centrifugation of the plates. Mean ± SD from two experiments in triplicates are shown. […] Dashed lines indicate background OD. (C) Swelling of RBC after treatment with dilutions of peptides in PBS for one hour and centrifugation of the plates. Red wells indicate an enlarged cell pellet due to swelling of the RBCs. Sequences of the peptides are shown at the right and are indicated in red with the TAT fusion partner indicated in blue.
Whole blood was collected from a healthy volunteer after informed consent by venipuncture into K2E K2EDTA VacuetteTM tubes (Greiner Bio-One, Kremsmünster, Austria) with 4 mL blood. The assay for haemolysis was adapted from Sæbo et al. and performed as described previously. In brief, blood was centrifuged at 1000× g for 10 min, and plasma kept for further use, followed by resuspension of red blood cells (RBC) in PBS and centrifugation for three times. RBC were seeded at a cell number of 1 × 10^7 cells/100 µL PBS per well into conical 96-well plates (ThermoFisher, Darmstadt, Germany) and incubated with 100 µL of 1:2 peptide dilutions starting from 40 µM either in PBS or 10% donor serum. Plates were incubated at 37 °C for one hour before at 1000× g for 5 min. Supernatants were then transferred to flat 96-well plates and optical density (OD) was determined at 450 nm using a Glo-Max®-Multi Detection System (Promega, Mannheim, Germany). As positive control, cells were lysed with 0.5% Triton X-100. Images from centrifuged plates were taken using a Kodak PIXPRO camera (Rochester, NY, USA).

The test system of series [4] is mouse cytomegalovirus (MCMV)/NIH/3T3 cells. To be noted: 72 h.

Read-outs that look alike come from different tables or passages of the source. Positions of bridges follow the written chain, without caps; N, C: chain ends. Residues, ends and D or L forms follow the SMILES beside them. No end group written: not given here.

Protocol for plasmid-DNA (dsDNA): We also included the TAT peptide, which binds DNA [34, 35].
Peptides were incubated with plasmid-DNA in the presence of SYBR^TM Gold dye. Reduction in fluorescence indicates binding of peptides to DNA. […] Curve fitting was performed using GraphPad Prism software.
DNA binding assay was performed, as described previously [26].

For the compound `CC(C)C[C@H](NC(=O)[C@H](CO)NC(=O)[C@H](CS)NC(=O)[C@H](CCC(N)=O)NC(=O)[C@@H]1CCCN1C(=O)[C@@H]1CCCN1C(=O)[C@H](CCCNC(=N)N)NC(=O)[C@H](CCCNC(=N)N)NC(=O)[C@H](CCCNC(=N)N)NC(=O)[C@H](CCC(N)=O)NC(=O)[C@H](CCCNC(=N)N)NC(=O)[C@H](CCCNC(=N)N)NC(=O)[C@H](CCCCN)NC(=O)[C@H](CCCCN)NC(=O)[C@H](CCCNC(=N)N)NC(=O)CN)C(=O)N[C@@H](C)C(=O)N1CCC[C@H]1C(=O)N[C@@H](C)C(=O)N[C@@H](CC(N)=O)C(=O)N[C@H](C(=O)N[C@@H](CS)C(=O)O)[C@@H](C)O` [TAT-M43] (H-GRKKRRQRRRPPQCSLAPANTC-OH; N-terminus and C-terminus assumed), in the series with Baculovirus/HEK293, the IC50 (as a rule, the concentration that inhibits the measured activity by half) amounted to 306 nM and the “fold higher IC50 value compared to TAT-I24, baculovirus-transduced HEK293 cells” value (“fold higher IC50 value” below) is on record as “approximately 20 fold”. Also, the RBC swelling result in the series on red blood cells (RBC) [1] is listed as “did not cause RBC swelling in the absence of serum even at 20 µM”. Moreover, in the series on plasmid-DNA (dsDNA), the “dsDNA-binding (reduction in SYBR Gold fluorescence)” value is recorded as “less dsDNA-binding”.
Regarding “CLAFYACF (disulfide 1-7 (inferred)) [C22del_cyc, TAT-I24 with a cyclized I24 peptide (CLAFYACF), cyclized via the two cysteine residues; previous study]”, in series [2], the “effect on localization of DiO-labelled MCMV” value is “no effect on localization of DiO-labelled MCMV”.
For `CC(C)C[C@H](NC(=O)[C@H](C)NC(=O)[C@H](Cc1ccc(O)cc1)NC(=O)[C@H](Cc1ccccc1)NC(=O)[C@H](C)NC(=O)[C@H](CC(C)C)NC(=O)[C@H](Cc1ccc(O)cc1)NC(=O)[C@@H]1CCCN1C(=O)[C@H](CCCNC(=N)N)NC(=O)[C@H](CCCNC(=N)N)NC(=O)[C@H](CCCNC(=N)N)NC(=O)[C@H](CCC(N)=O)NC(=O)[C@H](CCCNC(=N)N)NC(=O)[C@H](CCCNC(=N)N)NC(=O)[C@H](CCCCN)NC(=O)[C@H](CCCCN)NC(=O)[C@H](CCCNC(=N)N)NC(=O)CN)C(=O)N[C@@H](C)C(=O)N[C@@H](Cc1ccccc1)C(=O)N[C@@H](Cc1ccc(O)cc1)C(=O)N[C@@H](C)C(=O)N[C@@H](CS)C(=O)O` [TAT-M214] (H-GRKKRRQRRRPYLAFYALAFYAC-OH), the haemolysis in the series with red blood cells (RBC) [3] (2.5 µM peptide diluted in PBS) came out at 14%; with red blood cells (RBC) [3] (5 µM peptide diluted in PBS), 29%; in the series with red blood cells (RBC) [3] (10 µM peptide diluted in PBS), 37%; in the series on red blood cells (RBC) [3] (20 µM peptide diluted in PBS, two experiments in triplicates), 43%. The “haemolysis in the presence of 10% serum” value in the series with red blood cells (RBC) [3] (peptide diluted in 10% donor serum) was “not in the presence of 10% serum”. Besides, the IC50 in the series on Baculovirus/HEK293 amounted to 25 nM; in series [4], 3670 nM. Also, in the series on red blood cells (RBC) [1], the RBC swelling result is “caused RBC swelling at higher concentrations”.
Take `CC(C)C[C@H](NC(=O)[C@H](CS)NC(=O)[C@H](C)NC(=O)[C@H](Cc1ccc(O)cc1)NC(=O)[C@H](Cc1ccccc1)NC(=O)[C@H](C)NC(=O)[C@H](CC(C)C)NC(=O)[C@H](CCC(N)=O)NC(=O)[C@@H]1CCCN1C(=O)[C@@H]1CCCN1C(=O)[C@H](CCCNC(=N)N)NC(=O)[C@H](CCCNC(=N)N)NC(=O)[C@H](CCCNC(=N)N)NC(=O)[C@H](CCC(N)=O)NC(=O)[C@H](CCCNC(=N)N)NC(=O)[C@H](CCCNC(=N)N)NC(=O)[C@H](CCCCN)NC(=O)[C@H](CCCCN)NC(=O)[C@H](CCCNC(=N)N)NC(=O)CN)C(=O)N[C@@H](C)C(=O)N[C@@H](Cc1ccccc1)C(=O)N[C@@H](CS)C(=O)O` [TAT-M14] (H-GRKKRRQRRRPPQLAFYACLAFC-OH; N-terminus and C-terminus assumed): the IC50 in the series on Baculovirus/HEK293 is 34 nM; in series [4], 2570 nM. The RBC swelling result with red blood cells (RBC) [1] was “caused RBC swelling at higher concentrations”. Further, the “dsDNA-binding (reduction in SYBR Gold fluorescence)” value in the series with plasmid-DNA (dsDNA) is listed as “bind dsDNA”.
With `CC(C)C[C@H](NC(=O)[C@H](CCC(N)=O)NC(=O)[C@@H]1CCCN1C(=O)[C@H](CO)NC(=O)[C@H](CS)NC(=O)[C@H](CCC(N)=O)NC(=O)[C@@H]1CCCN1C(=O)[C@@H]1CCCN1C(=O)[C@H](CCCNC(=N)N)NC(=O)[C@H](CCCNC(=N)N)NC(=O)[C@H](CCCNC(=N)N)NC(=O)[C@H](CCC(N)=O)NC(=O)[C@H](CCCNC(=N)N)NC(=O)[C@H](CCCNC(=N)N)NC(=O)[C@H](CCCCN)NC(=O)[C@H](CCCCN)NC(=O)[C@H](CCCNC(=N)N)NC(=O)CN)C(=O)N[C@@H](C)C(=O)N1CCC[C@H]1C(=O)N[C@@H](Cc1ccccc1)C(=O)N[C@@H](CS)C(=O)O` [TAT-M41] (H-GRKKRRQRRRPPQCSPQLAPFC-OH; N-terminus and C-terminus assumed), in the series with Baculovirus/HEK293, the IC50 was determined as 434 nM and the “fold higher IC50 value” value is “approximately 20 fold”. Also, the RBC swelling result in the series with red blood cells (RBC) [1] was “did not cause RBC swelling in the absence of serum even at 20 µM”. Besides, in the series with plasmid-DNA (dsDNA), the “dsDNA-binding (reduction in SYBR Gold fluorescence)” value is given as “less dsDNA-binding”.
As for `CC(C)C[C@H](NC(=O)[C@H](CO)NC(=O)[C@H](CC(C)C)NC(=O)[C@H](CCC(N)=O)NC(=O)[C@H](CS)NC(=O)[C@H](CCC(N)=O)NC(=O)[C@@H]1CCCN1C(=O)[C@@H]1CCCN1C(=O)[C@H](CCCNC(=N)N)NC(=O)[C@H](CCCNC(=N)N)NC(=O)[C@H](CCCNC(=N)N)NC(=O)[C@H](CCC(N)=O)NC(=O)[C@H](CCCNC(=N)N)NC(=O)[C@H](CCCNC(=N)N)NC(=O)[C@H](CCCCN)NC(=O)[C@H](CCCCN)NC(=O)[C@H](CCCNC(=N)N)NC(=O)CN)C(=O)N[C@@H](C)C(=O)N1CCC[C@H]1C(=O)N[C@@H](Cc1ccc(O)cc1)C(=O)N[C@@H](CS)C(=O)O` [TAT-M42] (H-GRKKRRQRRRPPQCQLSLAPYC-OH; N-terminus and C-terminus assumed), in the series on Baculovirus/HEK293, half-maximal inhibition (IC50) required 378 nM and the “fold higher IC50 value” value is given as “approximately 20 fold”. Besides, in the series on red blood cells (RBC) [1], the RBC swelling result is on record as “did not cause RBC swelling in the absence of serum even at 20 µM”. Moreover, in the series on plasmid-DNA (dsDNA), the “dsDNA-binding (reduction in SYBR Gold fluorescence)” value is reported as “less dsDNA-binding”.

Values taken from PMC12692169, “Identification of Novel TAT-I24-Related Peptides with Antiviral Activities” (International Journal of Molecular Sciences, 2025).
